Laboratory results as given in paper PMC10940318, “Targeted intracellular delivery of dimeric STINGa by two pHLIP peptides for treatment of solid tumors” (Frontiers in Pharmacology, 2024).

Legend:
[1] = Self-immolation kinetics of the S-S linker and payload release after DTT, by HPLC; type: physicochemical; details: DTT in 50 mM phosphate buffer, 150 mM NaCl, pH 7.4; HPLC at 0.5-48 h, UV 220/280/325 nm
Procedure: Figure S3. Kinetics of self-immolation of 2pHLIP-dMSA. […] Starting 2pHLIP-dMSA is shown on A.
Figure S4. Self-immolation kinetics of pHLIP-mMSA. HPLC chromatograms recorded at 280 nm and 325 nm for pHLIP-mMSA treated with DTT dissolved in 50 mM phosphate buffer containing 150 mM NaCl pH 7.4 at different time points ([…]) after addition of DTT (A-G) and the retention time for mMSA (H) and pHLIP (I) are shown. Starting pHLIP-mMSA is shown on A.

[2] = Stability in human plasma; type: in vitro ADME; details: single donor human plasma, 200 µM, 0-24 h at 37°C, methanol precipitation, HPLC C18, UV 220/280/325 nm
Procedure: Plasma proteins were precipitated by methanol (1:5 volume ratio of plasma to methanol) and centrifuged for 10 min at 13.4 rpm. The supernatant was collected and analyzed by HPLC using a Zorbax SB-C18 4.6 × 250 mm, 5 μm column with a gradient from 20% to 80% acetonitrile in water containing 0.05% TFA. Chromatograms were recorded at 220 nm, 280 nm and 325 nm.

[3] = Stability in mouse plasma; details: BALB/c mouse plasma, 200 µM
Procedure: Plasma proteins were precipitated by methanol (1:5 volume ratio of plasma to methanol) and centrifuged for 10 min at […]. The supernatant was collected and analyzed by HPLC using a Zorbax SB-C18 4.6 × 250 mm, 5 μm column with a gradient from 20% to 80% acetonitrile in water containing 0.05% TFA. Chromatograms were recorded at 220 nm, 280 nm and 325 nm.

[4] = tested on: CT26 tumor; assay: Biodistribution and tumor targeting by ex vivo NIR fluorescence imaging; type: in vivo, Balb/c mice; details: single RO injection 50 µM 100 µL; ex vivo fluorescence at 1-120 h
Procedure: For biodistribution studies 5 × 10^4 of CT26 cancer cells were injected SQ in 100 µL of growth medium into the right flank of female Balb/c mice and tumors were grown until they reached 150–250 mm^3 in volume. Then a single retro-orbital (RO) injection of 50 μM 100 μL of 2(ICG-pHLIP)-dMSA was performed. Animals were euthanized at 5 min, 1, 4, 24, 48, 72, and 120 h post-injection, blood was collected in K2 EDTA vacutainer blood collection tubes (BD), and necropsy was performed immediately after animals were euthanized. […]
The in vivo and ex vivo bright field and near-infrared fluorescent imaging employed a Stryker 1588 AIM endoscopic system with L10 AIM Light Source (808 nm excitation and collection of light in the range of approximately of 815–850 nm), and a 1588 AIM Camera using a 10 mm scope. […] The ex vivo fluorescence imaging of tissue specimens was performed using three different laser settings and six different gain settings. The digital fluorescence images were split into RGB channels, with the green channel being analyzed using ImageJ program to calculate the average fluorescence intensity. All average intensities were adjusted based on their capture settings and using calibration curves to present fluorescence intensities corresponding to the unified (the same) settings.

[5] = Blood clearance (PK) by whole blood fluorescence imaging; type: in vivo, Balb/c mice; details: single RO injection of 2(ICG-pHLIP)-dMSA 50 µM 100 µL, CT26 tumor-bearing female Balb/c mice; whole blood fluorescence, exponential fit
Procedure: For biodistribution studies 5 × 10^4 of CT26 cancer cells were injected SQ in 100 µL of growth medium into the right flank of female Balb/c mice and tumors were grown until they reached 150–250 mm^3 in volume. Then a single retro-orbital (RO) injection of 50 μM 100 μL of 2(ICG-pHLIP)-dMSA was performed. Animals were euthanized at 5 min, 1, 4, 24, 48, 72, and 120 h post-injection, blood was collected in K2 EDTA vacutainer blood collection tubes (BD), and necropsy was performed immediately after animals were euthanized. Blood, tumors and major organs (kidney, liver, spleen, pancreas, lung, heart, large and small intestines, bone, muscle, brain) were collected, and imaged ex vivo immediately after necropsy. Blood (200 µL) was imaged in 96-well plates with black bottom and walls.
The in vivo and ex vivo bright field and near-infrared fluorescent imaging employed a Stryker 1588 AIM endoscopic system with L10 AIM Light Source (808 nm excitation and collection of light in the range of approximately of 815–850 nm), and a 1588 AIM Camera using a 10 mm scope. The lens was kept at a fixed distance from the surface of the organs, within an enclosed (light-protected) area. Calibration curves converting laser and gain settings were established by imaging of pHLIP-ICG solution at different concentrations. The ex vivo fluorescence imaging of tissue specimens was performed using three different laser settings and six different gain settings. The digital fluorescence images were split into RGB channels, with the green channel being analyzed using ImageJ program to calculate the average fluorescence intensity. All average intensities were adjusted based on their capture settings and using calibration curves to present fluorescence intensities corresponding to the unified (the same) settings.

[6] = molecular target: T1, human STING WT protein (Homo sapiens, UniProt Q86WV6); assay: HTRF competitive binding to STING protein (human STING WT binding kit); details: HTRF competitive assay, 6His-tagged human STING WT, d2-labelled ligand, 3 h RT; EC50 in method, IC50 in Fig. S1; read-out: binding affinity to STING protein
T1 construct: purchased Cisbio
Procedure: STING WT ligand d2 reagent was premixed with 6His Tb antibodies, and it was added to each well and the plate was incubated for 3 h at RT. Fluorescence intensities at 616 nm and 665 nm excited at […] were recorded on the SpectraMax ID5 plate reader (Molecular Devices). The homogeneous time resolved fluorescence (HTRF) ratio was calculated to establish the binding of each agent to the STING protein and to calculate EC50.

[7] = tested on: CT26 murine colorectal cancer tumors; assay: Treatment of CT26 tumors in mice; type: in vivo, Balb/c mice; details: two IP injections of 300 µM 500 µL on days 1 and 3; CT26 tumors
Procedure: For the treatment of CT26 tumors, 5 × 10^4 CT26 murine colorectal cancer cells (ATCC, CRL-2638) were injected subcutaneously (SQ) in 100 μL of growth medium into the right flank of female Balb/c mice ranging in age from 7 to 9 weeks (Envigo RMS, Inc.). […] The compounds were dissolved in DMSO as a stock solution and transferred to PBS (vehicle). The residual DMSO in the final solution injected into animals was less than 2%. Tumor volume and body weight were measured 3 times per week throughout the study. Measurements of tumors were performed using calipers, and the tumor volume (V) was calculated with the formula: V=0.52∙L∙W^2 where L is the length and W is the width of the measured tumor. Mice were removed from the study and euthanized when the tumor volume was greater than 2,000 mm^3.

[8] = tested on: THP-1-Blue-ISG cells polarized into M2-type macrophages; assay: Activation of IFN (IRF-SEAP reporter) in M2-polarized macrophages; type: cell-based, human; details: THP1-Blue-ISG cells polarized by PMA, IL-4/IL-13, 2 h in DMEM without FBS pH 6.9, then 48 h, QUANTI-Blue, absorbance 655 nm, read-out: EC50 of activation of IRF signaling
Procedure: THP-1-Blue™-ISG cells (Invivogen) expressing an interferon (IFN) regulatory factor (IRF)-inducible secreted embryonic alkaline phosphatase (SEAP) reporter construct were used. Cells were maintained in RPMI growth medium supplemented with L-glutamine, sodium pyruvate, 10% fetal bovine serum (FBS), normocin and ciprofloxacin hydrochloride in a humidified atmosphere of 5% CO2 and 95% air at 37°C. Cells were seeded in 96-well plates at a density of 75,000 cells/well. To generate M2 polarized macrophages, cells were treated first with 185 ng/mL phorbol 12-myristate 13-acetate (PMA) for 6 h and then 20 ng/mL of interleukin 4 (IL-4) and 20 ng/mL of interleukin 13 (IL-13) (both from PeproTech) were added for another 16 h of treatment. […] After a 2-h incubation, an equal volume of RPMI supplemented with 20% heat-inactivated FBS was added, and cells were incubated for another 48 h. SEAP activity was accessed using the QUANTI-Blue™ Solution (Invivogen) to evaluate type I interferon protein levels: 150 μL of the colorimetric reagent was added to 50 μL of cell supernatant for 30 min, 37°C, followed by absorption measurement at 655 nm.

T1 sequence (Q86WV6 whole entry): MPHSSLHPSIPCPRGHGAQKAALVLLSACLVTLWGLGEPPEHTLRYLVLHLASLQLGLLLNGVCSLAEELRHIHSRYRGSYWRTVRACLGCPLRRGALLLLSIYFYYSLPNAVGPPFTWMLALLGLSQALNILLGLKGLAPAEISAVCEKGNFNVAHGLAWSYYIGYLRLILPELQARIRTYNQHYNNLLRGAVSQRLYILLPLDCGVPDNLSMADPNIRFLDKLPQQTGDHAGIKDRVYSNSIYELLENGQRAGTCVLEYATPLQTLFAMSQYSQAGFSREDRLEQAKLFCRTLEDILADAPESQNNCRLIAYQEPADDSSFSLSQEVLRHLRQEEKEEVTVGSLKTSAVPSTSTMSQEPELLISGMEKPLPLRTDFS

Compound: ADQDNPWRAYLDLLFPTDTLLLDLLWCG [pHLIP-mMSA]
- time to completion of linker self-immolation and release of payload in its original form [1]: ≤ 24 h
- stability in human plasma (in words) [2]: very high
- stability in mouse plasma (in words) ([3]; 0-24 h at 37°C, methanol precipitation, HPLC C18, UV 220/280/325 nm): low

Compound: AKDQDNPWRAYLDLLFPTDTLLLDLLWCG [2(ICG-pHLIP)-dMSA, fluorescent version of 2pHLIP-dMSA with ICG dye on a lysine near the N-terminus of each pHLIP]
- accumulation in the tumor (in words) [4]: significant accumulation of the agent in the tumor from 1 h and up to 48 h
- organ and tissue clearances (in words) [4]: slow
- blood clearance half-life [5]: 32.2 h

Compound: COc1cc2cc(C(=O)CCC(=O)O)sc2cc1OC [mMSA, reference compound]
- IC50 [6]: 7.5 µM
- time within which the cargo released from pHLIP underwent degradation in mouse plasma ([3]; 37°C, HPLC C18, UV): ≤ 24 h
- therapeutic activity on animals (in words) [7]: did not demonstrate any activity
- EC50 [8]: 2200 nM
